Experimental findings from paper PMC12567141, “Design, Synthesis and Biological Evaluation of Pyrazolopyrimidine Derivatives as Aryl Hydrocarbon Receptor Antagonists for Colorectal Cancer Immunotherapy” (Pharmaceutics, 2025) are described below.

In series [1] the test system is MC38 and CT26 cells. In words: Cell-cycle analysis by flow cytometry. Particulars: 24 h treatment. It counts as cell-based. Here is the method: Washed and fixed cells were stained in the dark with 0.5 mL propidium iodide/RNase staining buffer for 15 min at room temperature. DNA content, cell-cycle profiles, and forward scatter were analyzed using a Becton Dickinson LSRFortessa^TM (BD Diagnostics, San Jose, CA, USA) with emission detection at 488 nm (excitation) and 575 nm (peak emission). Data were analyzed using FlowJo (BD biosciences, San Jose, CA. USA).
(In general: Flow cytometry measures light scatter and fluorescence of single cells or particles in a stream.)

For series [2], the system named is PD-1 expression in Jurkat/PD-1 cells. The series can be described thus: PD-1 expression by FACS in PHA-treated Jurkat/PD-1 cells. It counts as cell-based. Here is the method: For analysis of PD-1 expression in PD-1-overexpressing Jurkat T cells (Jurkat/PD-1 cells), Jurkat/PD-1 cells in 24-well plates were treated with 2 μg/mL Phytohaemagglutinin (PHA) and incubated with 5 and 10 μM 7k for 24 h. Cells were collected were stained with APC-conjugated PD-1 Ab at 4 °C for 30 min (BioLegend). After washing with FACS buffer (Biolegend) three times, the cells were analysed using Becton Dickinson LSRFortessa^TM and analyzed with FlowJo software. Isotype-matched monoclonal antibodies were used as controls. The data were analysed using Flowjo analysis software (FlowJo LLC, Ashland, OR, USA).

Series [3] concerns CT26 tumor. In words: In vivo therapy, CT26 syngeneic model. On the set-up: species or system mice. Here is the method: In vivo experiments were conducted using 6-week-old male immunocompetent BALB/c and C57BL/6 with 18–20 g body weight (Orient Bio Inc., Seungnam, Republic of Korea). All animal experimental procedures were maintained and used in accordance with the Guidelines for the Care and Use of Laboratory Animals of the Institute of Laboratory Animal Center, Daegu-Gyeongbuk Medical Innovation Foundation (K-MEDI hub). The animal studies were conducted after approval by the institutional reviewer board on the Ethics of Animal Experiments of the Daegu-Gyeongbuk Medical Innovation Foundation (approval number: KMEDI-24041103-01).
Study 1: Antitumor activity of 7k alone in mice with either CT26 syngeneic model or MC38 syngeneic model. Mice were subcutaneously challenged with 5 × 10^5 either MC38 or CT26 cells. When tumor formation was detected via inspection and palpation, 7k treatment was initiated once a day for 14 days by oral gavage.
Study 2: Antitumor activity of combination with anti-PD1 and 7k in CT26 tumor bearing mice. Mice were subcutaneously challenged with 5 × 10^5 CT26 cells. Tumor bearing mice were divided into four groups as following; Group 1: vehicle, Group 2: 10 mg/kg anti-PD1, Group 3: 10 mg/kg 7k, and Group 4: 10 mg/kg anti-PD1 + 10 mg/kg 7k. 7k was administered by oral gavage once daily. Anti-PD1 antibody (clone RPM1-14, Bio X cell, Lebanon, NH, USA) was injected intraperitoneally every 3 days for 4 doses.
The 7k was dissolved in solution including 5% DMSO, 55% DW, and 40% PEG. Tumor size was measured with a caliper at the indicated time points, and tumor volume (mm^3) was calculated using the following formula, tumor volume (mm^3) = d2 × D/2, where d and D are the shortest and longest diameters in mm, respectively.

Series [4] deals with p53/p21/caspase-3 signaling pathway in MC38 and CT26 cells. In words: Western blot of apoptosis-regulating proteins. The settings on record: 24 h. Type of series: cell-based. Here is the method:
For the extraction of total protein, cells were treated with 7k for 24 h in a CO2 incubator at 37 °C and washed twice with phosphate-buffered saline (PBS). Cell pellets were lysed using radioimmunoprecipitation assay (RIPA) buffer (Thermo Fisher Scientific) containing a protease and phosphatase inhibitor cocktail kit (Thermo Fisher Scientific). The lysed cells were briefly vortexed at intervals and subsequently centrifuged at 13,000× g at 4 °C. The protein sample was quantified with the bicinchoninic acid (BCA) protein assay kit (Thermo Fisher Scientific).
Equal amounts of proteins were loaded onto 10% sodium dodecyl sulfate polyacrylamide gel electrophoresis and transferred onto PVDF membranes (Millipore, Billerica, MA, USA). The membrane was blocked with 5% skim milk in Tris-buffered saline (TBS) containing Tween-20 (TBS-T) for an hour and probed with the respective primary antibodies in 5% BSA overnight at 4 °C. Following incubation, the membrane was probed with horseradish peroxidase (HRP)-conjugated secondary antibodies for an hour at room temperature. The membrane was washed three times with TBS-T and the signal was visualized using an enhanced chemiluminescence (ECL) detection reagent (GE Healthcare Life Sciences, Pittsburgh, PA, USA).
The primary antibodies used were as follows: Total p53 (Santa Cruz Biotechnology, Dallas, TX, USA, working dilution 1:500), PARP (CST, Danvers, MA, USA; working dilution 1:1000), cleaved caspase3 (CST, MA, USA; working dilution 1:1000), p21 (CST, MA, USA; working dilution 1:1000), Bcl-2 (CST, MA, USA; working dilution 1:1000), AhR (Santa Cruz; working dilution 1:500), LaminB1 (CST, MA, USA; working dilution 1:2000), GAPDH (Abcam, Cambridge, UK; working dilution 1:5000) and β-actin (CST, MA, USA; dilution 1:5000). HRP-conjugated secondary antibodies used were as follows: anti-mouse (CST, MA, USA) and anti-rabbit (CST, MA, USA).
For orientation: In western blotting, separated proteins are transferred to a membrane and probed.

Series [5] can be described thus: Pharmacokinetic study in mouse. Particulars: male, ICR, plasma. It counts as in vivo, ICR mice. Here is the method:
To estimate the pharmacokinetic parameters in animals, the drug was administered via intravenous (I.V., 5 mg/kg) and oral (P.O., 10 mg/kg) routes in seven-week-old male ICR mice (Orient Bio Inc., Seongnam, Korea). Blood samples were collected at 0.083 (for I.V.), 0.5, 1, 2, 4, 8, and 24 h after drug administrations and then immediately centrifuged at 10,000× g for 3 min. The plasma concentrations of the drug were determined via LC-MS/MS. The plasma concentration–time profiles and pharmacokinetic parameters were estimated using the non-compartmental method with the nonlinear least squares regression program WinNonlin 5.3 (Pharsight, Mountain View, CA, USA).

One may read the AUC(0-inf) as total exposure, with the tail of the curve extrapolated. The term AUC(0-t) denotes the area under the concentration-time curve up to a stated or last time point. Lower therefore signals less exposure. The clearance is the volume of plasma or blood freed of the substance per unit of time. For orientation: half-life means the time in which the quantity being followed falls by half. Read a low half-life as rapid decline. For orientation: Cmax means the highest concentration seen after dosing. One may read the Tmax as the time from dosing to the highest level. The term bioavailability denotes the share of a dose that reaches the circulation, judged against a reference dose that is usually intravenous. In the case of `CC(C)n1cc2nc(-c3cc(F)cc(F)c3)nc(NCCc3c[nH]c4ccccc34)c2n1` [Compound 7k, N-(2-(1H-indol-3-yl)ethyl)-5-(3,5-difluorophenyl)-2-isopropyl-2H-pyrazolo [4,3-d]pyrimidin-7-amine], the sub-G1 fraction entry in series [1] is on record as “dose-dependent increase in the sub-G1 fraction”. Also, the PD-1 expression result in series [2] is “reduced PD-1 expression”. Further, the “tumor growth inhibition (TGI)” value in series [3] (CT26 model, combination study, 7k 10 mg/kg oral daily 14 days, anti-PD1 10 mg/kg i.p. every 3 days x4) was found to be 49%. Besides, the tumor weight result in series [3] (CT26 tumor bearing mice, vs vehicle-treated mice (Figure S4)) is on record as “significantly lower”. For the same compound, the “tumor growth inhibition (TGI)” value in series [3] (CT26 tumor-bearing mice, single agent, 10 mg/kg oral once a day for 14 days) is 33%. For the same compound, in series [4], the Bcl-2 expression result is recorded as “downregulation of Bcl-2”; the “cleaved poly (ADP-ribose) polymerase and cleaved caspase 3” value is “upregulation of cleaved poly (ADP-ribose) polymerase and cleaved caspase 3”; the p21 expression entry is reported as “increase in p21”; the p53 expression entry is recorded as “upregulation of p53”. In series [5] (IV, 5 mg/kg), the AUC(0-inf) is 5860 ng·h/mL, the AUC(0-t) came to 5750 ± 740 ng·h/mL, the clearance was 14.3 mL/min/kg and the half-life is 4.54 h. In series [5] (IV, 5 mg/kg, read-out: Vss (converted)), the Vd is 3.91 L/kg. Moreover, in series [5] (PO, 10 mg/kg), the total exposure AUC(0-inf) was 8230 ng·h/mL, the AUC(0-t) turned out to be 8160 ± 3670 ng·h/mL, the Cmax is 2380 ng/mL and the Tmax came out at 0.67 ± 0.29 h. In series [5] (PO, 10 mg/kg), this compound gave a half-life of 3.77 h. The bioavailability in series [5] (PO, 10 mg/kg, read-out: Ft (%) bioavailability (converted)) is 71%.
